Laboratory results from paper PMC5216130, “Saturated palmitic acid induces myocardial inflammatory injuries through direct binding to TLR4 accessory protein MD2” (Nature Communications, 2017).
One block for each compound: values may come before it.

Tests used:
[1] = biological target: T1, MD2 (myeloid differentiation protein 2; rhMD2) (Homo sapiens, UniProt Q9Y6Y9); experiment: SPR (ProteOn XPR36); confirmed on ForteBio Octet HTX (KD=[…]) and by biotin-PA ELISA; type: binding
T1 construct: gene LY96; recombinant human MD2 (rhMD2)
T1 sequence (Q9Y6Y9 19-160): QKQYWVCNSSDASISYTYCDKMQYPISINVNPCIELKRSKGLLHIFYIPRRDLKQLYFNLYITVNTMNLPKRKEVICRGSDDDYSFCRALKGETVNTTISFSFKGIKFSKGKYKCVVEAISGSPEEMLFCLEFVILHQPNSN

[2] = biological target: T1, MD2 (myeloid differentiation protein 2; rhMD2); experiment: ForteBio Octet HTX (called SPR in the paper); type: binding

Kd [1]: 31.6 µM
Compound: CCCCCCCCCCCCCCCC(=O)O [PA, palmitic acid]

Compound: CCCCC/C=C\C/C=C\CCCCCCCC(=O)O [linoleic acid]
Kd [2]: 54 µM

Kd ([2]; read-out: Kd): 35 µM
Compound: CCCCCCCC/C=C\CCCCCCCC(=O)O [oleic acid]
